Laboratory results taken from PMC9610999, “Itraconazole-Induced Increases in Gilteritinib Exposure Are Mediated by CYP3A and OATP1B” (Molecules, 2022).
Where two headings read alike, the source gives them in different places.

Columns and labels:
[1] = target: T1, OATP1B1 (Homo sapiens, UniProt Q9Y6L6); assay: Washout assay: recovery of OATP1B1 function (EβG uptake); assay type: cell-based; conditions: within a 1-h period after 15 min treatment with gilteritinib 15 µM; 0.2 μM EβG
T1 construct: expressed in transfected cells; host or cells: HEK293
T1 sequence (Q9Y6L6 1-691): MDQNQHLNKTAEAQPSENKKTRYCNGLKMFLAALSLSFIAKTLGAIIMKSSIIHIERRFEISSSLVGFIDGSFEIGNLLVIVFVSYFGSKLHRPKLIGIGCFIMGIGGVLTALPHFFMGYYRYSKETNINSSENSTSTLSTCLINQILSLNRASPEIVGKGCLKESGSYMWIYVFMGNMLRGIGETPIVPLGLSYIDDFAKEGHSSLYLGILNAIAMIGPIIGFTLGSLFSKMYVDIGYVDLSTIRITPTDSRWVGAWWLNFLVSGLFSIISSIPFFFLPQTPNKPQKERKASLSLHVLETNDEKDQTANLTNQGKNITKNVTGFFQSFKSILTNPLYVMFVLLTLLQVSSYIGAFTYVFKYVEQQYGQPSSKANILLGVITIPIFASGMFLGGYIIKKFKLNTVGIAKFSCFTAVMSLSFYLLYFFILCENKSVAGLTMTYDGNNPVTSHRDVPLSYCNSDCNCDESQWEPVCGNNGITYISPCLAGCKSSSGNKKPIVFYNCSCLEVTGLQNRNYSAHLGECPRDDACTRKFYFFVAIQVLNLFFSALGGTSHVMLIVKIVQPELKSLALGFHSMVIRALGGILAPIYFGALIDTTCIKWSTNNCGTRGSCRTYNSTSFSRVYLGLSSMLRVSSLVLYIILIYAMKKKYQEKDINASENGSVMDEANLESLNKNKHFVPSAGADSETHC
Procedure: OATP1B1 overexpressing cells and vector control cells were plated in 12-well plates 24 h prior to experimentation. Cells were then washed with warm PBS and pre-incubated for 15 min with 0.5 mL DMSO or gilteritinib (15 μM) in DMEM at 37 °C. After pre-incubation, the supernatant was removed, and cells were washed with PBS. Compound-free medium was then added, and the cells were further incubated for periods of 15, 30, and 60 min. Next, the medium was removed, and cells were incubated with 0.5 mL of 0.2 μM EβG for 15 min. After that, the medium was removed and the cells were washed three times with ice-cold PBS, and 1 N NaOH was added to the wells to stop the rection. The next day 1 M HCL was added to each well and substrate concentrations were assessed using liquid scintillation counting. The resulting data were normalized to total protein as determined by a Pierce protein assay.

[2] = set-up: method as in PMID 32546970; conditions: rats; cited from earlier work
[3] = Plasma pharmacokinetics of oral gilteritinib in mice, with or without itraconazole pretreatment; assay type: in vivo; conditions: for Cmax / AUC(0-t): male, mouse, plasma, po, 10 mg/kg, gilteritinib 10 mg/kg p.o., mean (SD); for AUC(0-t): read-out: Gilteritinib AUC0–24h
Source text: Male and female CYP3A(−/−) mice and age- and sex-matched wild-type mice on an FVB/NTac (CYP3A(+/+)) background were bred in-house. Male OATP1B2(−/−) mice and age and sex-matched wild-type mice on a DBA1/lacJ (OATP1B2(+/+)) background were bred in-house. All mice were aged 8–16 weeks and weighed 18–30 g. Littermates of the same sex were housed in groups of five or fewer in a temperature- and light-controlled environment (12-h light/dark cycles) in cages lined with absorbent bedding. Mice were given free access to standard food and water. All breeding and experimental procedures were conducted with the approval of the University Laboratory Animal Resources Animal Care and Use Committee at The Ohio State University under protocol number 201500000101-R2.
For in vivo pharmacokinetic studies, mice were randomly divided into experimental groups of equal size. Gilteritinib powder was dissolved in 0.5% methylcellulose solution in distilled sterile water at a concentration of 2 mg/mL and was administered via oral gavage at a body weight normalized dose of 10 mg/kg. The dose of gilteritinib was chosen based on previous preclinical characterization of gilteritinib pharmacokinetics. Itraconazole powder was dissolved in a solvent comprised of 5% DMSO, 70% PEG300, and 25% distilled sterile water and administered orally at a dose of 100 mg/kg. The dose of itraconazole was based on previous work studying preclinical DDI with itraconazole. For combination treatments, itraconazole was always given 30 min prior to gilteritinib.
Pharmacokinetic studies were performed in accordance with a repeat sampling strategy described previously. After a single dose of gilteritinib, 20–40 μL of whole blood samples were collected from each mouse at time points ranging from 0.5–24 h after dosing. Samples procured during the first three time points were collected from the submaxillary vein using a sterile, disposable 4 mm or 5 mm Goldenrod animal blood lancet and collected into a glass micro-hematocrit heparinized capillary tube. For samples obtained at the fourth and fifth time points, the mice were sedated using 2% isoflurane and whole blood was obtained via the retro-orbital venous plexus. At the final time point, mice were euthanized via carbon dioxide inhalation, whole blood was collected by cardiac puncture with a needle and 1-mL syringe and transferred to a 1.5-mL heparinized tube. All samples were centrifuged at 13,000× g for 5 min and the plasma supernatant was transferred to a 0.5-mL tube, snap-frozen on dry ice, and stored at −80 °C until the day of analysis.
Pharmacokinetic parameters were estimated using non-compartmental analyses using Phoenix WinNonlin version 8.1 (Certara, Princeton, NJ, USA). Estimated measures of exposure included the peak plasma concentration (Cmax) and the area under the plasma concentration–time curve (AUC).

[4] = cited from earlier work
[5] = CYP3A(−/−) on FVB/NTac background, CYP3A(−/−) male mice, itraconazole 100 mg/kg 30 min before
[6] = CYP3A(−/−) on FVB/NTac background, CYP3A(−/−) male mice, no co-treatment
[7] = DBA/1J (wild-type), Wild-type DBA/1J male mice, no co-treatment
[8] = FVB (wild-type), Wild-type FVB male mice, itraconazole 100 mg/kg 30 min before
[9] = FVB (wild-type), Wild-type FVB male mice, no co-treatment
[10] = OATP1B2(−/−) on DBA1/lacJ background, OATP1B2(−/−) male mice, itraconazole 100 mg/kg 30 min before
[11] = OATP1B2(−/−) on DBA1/lacJ background, OATP1B2(−/−) male mice, no co-treatment, experiment compared with itraconazole co-treatment
[12] = OATP1B2(−/−) on DBA1/lacJ background, OATP1B2(−/−) male mice, no co-treatment, experiment compared with wild-type DBA/1J

CCc1nc(C(N)=O)c(Nc2ccc(N3CCC(N4CCN(C)CC4)CC3)c(OC)c2)nc1NC1CCOCC1 [Gilteritinib]
OATP1B1 transport recovered after washout [1]: 75%
Increase in gilteritinib exposure by itraconazole [2]: 1.4 fold
Gilteritinib AUC Fold Increase ([3]; CYP3A(−/−) mice, no co-treatment, vs. WT): 1.3 (vs. WT) fold
Gilteritinib AUC Fold Increase ([3]; CYP3A(−/−) mice, no co-treatment, vs. WT, listed as gilteritinib): 1.3 fold
Gilteritinib AUC Fold Increase ([3]; CYP3A(−/−) mice, with itraconazole 100 mg/kg vs. Vehicle): 0.97 (vs. Vehicle) fold
Gilteritinib AUC Fold Increase ([3]; OATP1B2(−/−) mice, no co-treatment, vs. WT): 1.4 (vs. WT) fold
Gilteritinib AUC Fold Increase ([3]; OATP1B2(−/−) mice, no co-treatment, vs. WT, listed as gilteritinib): 1.4 fold
Gilteritinib AUC Fold Increase ([3]; OATP1B2(−/−) mice, with itraconazole 100 mg/kg vs. Vehicle): 0.84 (vs. Vehicle) fold
Gilteritinib AUC Fold Increase ([3]; Wild-type FVB mice, with itraconazole 100 mg/kg vs. Vehicle): 2.5 (vs. Vehicle) fold
Gilteritinib AUC Fold Increase ([3]; Wild-type FVB mice, with itraconazole 100 mg/kg vs. Vehicle, listed as gilteritinib): about 2.5 fold
Cmax [3, 5]: 430 ng/mL
AUC(0-t) [3, 5]: 5840 ng·h/mL
Cmax [3, 6]: 380 ng/mL
AUC(0-t) [3, 6]: 5990 ng·h/mL
Cmax [3, 7]: 260 ng/mL
AUC(0-t) [3, 7]: 4550 ng·h/mL
Cmax [3, 8]: 960 ng/mL
AUC(0-t) [3, 8]: 11500 ng·h/mL
Cmax [3, 9]: 310 ng/mL
AUC(0-t) [3, 9]: 4650 ng·h/mL
Cmax [3, 10]: 1350 ng/mL
AUC(0-t) [3, 10]: 15000 ng·h/mL
Cmax [3, 11]: 1430 ng/mL
AUC(0-t) [3, 11]: 17800 ng·h/mL
Cmax [3, 12]: 390 ng/mL
AUC(0-t) [3, 12]: 6160 ng·h/mL
Maximum tolerated dose ([4]; ref 4): 300 mg
Maximum tolerated dose ([4]; ref 29): 200 mg
